Source: patent US20260273020A1, “OBESTATIN FOR USE AS ANTINEOPLASTIC AGENT IN THE TREATMENT OF PANCREATIC CANCER” (SERVIZO GALEGO DE SAÚDE, priority 2023, published 2026)

Legend:
KPC FC1242 cells = assay: Proliferation assay, cell counting under chronic obestatin treatment; format: cell-based, mouse
Experimental: The murine pancreatic cancer cells KPC FC1242 were isolated from PDAC tumour tissues obtained from LSL-KrasG12D; LSL-Trp53R172H; Pdx1-Cre mice of a pure C57BL/6 background. This cell line was kindly donated by David A. Tuveson (Cold Spring Harbor Laboratory, Cold Spring Harbor, New York, US). KPC FC1242 were maintained in DMEN (Lonza, Basel, CH), and supplemented with 10% fetal bovine serum (FBS; Hyclone, GE Healthcare Life Sciences, South Logan, UT, US), 4.5 g/L glucose, 200 mg/L sodium pyruvate, 584 mg/L L-glutamine and 1% penicillin/streptomycin (Sigma-Aldrich, St. Louis, MO, US) and incubated in an atmosphere containing 5% CO2 at 37° C. These cells were periodically tested and resulted negative for mycoplasma contamination.
For the analysis of proliferation the cells were seeded on 12-well plates at an amount of 50,000 cells per well and maintained for 24 h in culture media (see above) to allow attachment. The medium was completely removed and replaced with serum-free media for additional 24 h. […] Twenty-four h after the last treatment, the cells were trypsinized and manually counted with a Neubauer camera.
The total cells were calculated using the following equations counting 10 squares: […]

[1] = tested on: aSMA, HSP47, vimentin, collagen I, fibronectin, ADRP; assay: Immunoblot of pancreatic tumors: fibrosis and CAF markers; format: in vivo, C57BL/6J mice; conditions: obestatin 500 nmol/Kg/72 h
Experimental: FIG. 6. Immunoblot analysis of aSMA, vimentin, collagen I, fibronectin, and ADPR in the pancreatic tumors of C57BL/6J mice (n=4) orthotopically injected with KPC FC1242 cells and treated with vehicle [NaCl, 0.9% (w/v)] or obestatin (500 nmol/Kg/72 h). Results are expressed as fold of control of the non-treated injected mice [control; mean±SE (*, P<0.05)].
Mice were weighed at set times over the 15-day period. The sterilized surgical material was used for the tissue extraction. Pancreases and muscles were carefully removed from each animal minimizing contamination with surrounding tissue or mouse hair. Pancreases and muscles were weighed. The skeletal muscles selected were: tibialis anterior, TA; extensor digitorum longus, EDL; gastrocnemius, GAST; soleus, SOL; and diaphragm, DIA. Pancreases were also measured with a scale (cm) and pictures were taken. • Histology—Pancreas samples for histology were fixed in 4% paraformaldehyde in PBS at room temperature overnight. After fixation, samples were dehydrated and embedded in paraffin blocks. For this study, 3-micron sections were cut from each block and placed on pre-cleaned slides (Thermo Fisher Scientific, Waltham, MA, USA). The sectioned tissue slides were covered with a thin layer of paraffin, stoked at 60° C. for 1 hour and stored protected from light at room temperature to preserve the antigenicity of sections. • Immunoblot—For immunoblot analysis, pancreases were immediately frozen in dry ice and stored at −80° C. until use. Tissues were homogenized using a TissueLyser II tissue homogenizer (Qiagen, Hilden, DE), in 200 μL of RIPA lysis buffer at 30 Hz for 3 min. The lysates were clarified by centrifugation (18,000×g, 15 min, 4° C.), and the protein concentration was quantified by the Quantipro™ BCA assay kit (Sigma-Aldrich, St. Louis, MO, US).
Tissues were disrupted and homogenized in ice-cold lysis buffer [50 mM Tris-HCl pH 7.2, 150 mM NaCl, 1 mM EDTA, 1% (v/v) NP-40, 0.25% (w/v) Na-deoxycholate, protease inhibitor cocktail (PIC; 1:100; Sigma Chemical Co., St. Luis, MO, US), phosphatase inhibitor cocktail (PHIC; 1:100; Sigma Chemical Co., St. Luis, MO, US)] with 5 mm stainless steel beads using a TissueLyser (Qiagen, Hilden, DE) at 30 Hz for 3 min. The soluble cell lysates were pre-cleared by centrifuging at 14,000 rpm for 15 min. Supernatants were recovered and the protein was quantified with BCA Protein Assay Kit (Thermo Fisher Scientific, Rockford, IL, US). The same amount of protein for each sample was separated on 7-15% SDS/polyacrylamide gels and transferred to nitrocellulose membranes (Bio-Rad, Hercules, CA, US). The blots were incubated with 5% bovine serum albumin (BSA) in a Tris buffer solution (TBS) containing Tween-20 [TBST; 20 mM Tris-HCl (pH 8.0), 150 mM NaCl, 0.1% (v/v) Tween-20, solution used for all incubation and washing steps] for 1 h. The blots were then incubated with the corresponding primary antibodies and subsequently were incubated with the corresponding peroxidase-conjugated IgG antibody (Table 1). After washing, the signals were visualized using an ECL plus Western Blotting Detection System (Pierce ECL Western Blotting Substrate; Thermo Fisher Scientific, Pierce, Rockford, IL, US). The image processing was performed using the NIH Image Software ImageJ 1.53o (National Institutes of Health, Bethesda, MD, US).

obestatin
effect on FBS-mediated proliferation (KPC FC1242 cells; 100 nM obestatin+10% FBS each 24 h for 72 h): significant inhibitory effect
proliferation (number of cells) (KPC FC1242 cells; mouse obestatin (SEQ ID NO: 4) 100 nM each 24 h for 72 h, serum-free): does not activate the proliferation
adipophilin (ADRP) diminished [1]: 42.6±8.8%
augment of vimentin [1]: 111.1±19.1%
higher levels of HSP47 [1]: 49.5±17.7%
increased expression of aSMA [1]: 53.7±7.3%
inhibition of expression of collagen [1]: 60.1±2.9%
inhibition of expression of fibronectin [1]: 57.0±7.1%
